Measurements reported in ChEMBL document CHEMBL3272289, “Amino acids. 1. alpha-Hydroxymethylphenylalanines” (1976).
Active and inactive are the calls of the source. The calls are words filed in the database; no cut-off is given here.

Experiments:
Rattus norvegicus [1] = assay: Hypotensive effect in conscious spontaneously hypertensive rat assessed as reduction in blood pressure at 100 to 300 mg/kg, po; assay type: functional, organism-based
Rattus norvegicus [2] = assay: Hypotensive effect in conscious spontaneously hypertensive rat assessed as reduction in blood pressure at 50 mg/kg, po administered as single dose; assay type: functional
Rattus norvegicus [3] = assay: Hypotensive effect in conscious spontaneously hypertensive rat assessed as reduction in blood pressure at 100 mg/kg, po administered as single dose; assay type: functional

`NC(CO)(Cc1ccc(O)c(O)c1)C(=O)O` (centres undefined) was tested, and the Activity (Rattus norvegicus [1]) was “inactive”.

`NC(CO)(Cc1ccc(O)cc1)C(=O)O` (centres undefined) was tested, and the Activity (Rattus norvegicus [1]) was “inactive”.

In the case of `C[C@](N)(Cc1ccc(O)c(O)c1)C(=O)O` [METHYLDOPA], the Activity (Rattus norvegicus [2]) is reported as 44 mmHg and the Activity (Rattus norvegicus [3]) is reported as 85 mmHg.
